Series [1] concerns HEK293(β1) cells (αVβ3-negative). The experiment in a line: In vitro binding of Cy5-labeled peptides, confocal laser scanning microscopy. Format: cell-based, human. The settings on record: 0.1 μM Cy5-labeled peptide, 30 min, 37°C, result in words. As to the method: (§1) Cells were seeded on sterilized 18-mm-diameter glass coverslips in 12-well plates (3 × 10^5 cells per well), and incubated overnight at 37°C. […] They were then washed with PBS, fixed with 2% paraformaldehyde at room temperature for 10 min. The nuclei were stained with 5 μM Hoechst 33342, and the coverslips were inverted onto glass slides using Mowiol (Calbiochem, San Diego, CA) mounting medium.

The test system of series [2] is HEK293(β3) cells (high levels of αVβ3). The series is described as above. The series is classed as cell-based, human. The settings on record: 0.1 μM Cy5-labeled peptide, 30 min, 37°C, result in words. As to the method: as §1
Series [3] relates to HEK293(β3) s.c. tumors. The experiment in a line: Whole body in vivo optical imaging (fluorescence reflectance) of tumor-bearing mice. Details: species or system Swiss nude mice.
Series [4] deals with HEK293(β3) s.c. tumors. The series is described as follows: Histological distribution of RGD-peptides in excised tumors (CLSM). To be noted: HEK293(β3) s.c. tumor excised 3 hr after 10 nmol i.v., cryosections. Format: in vivo, Swiss nude mice. The procedure: Sections of 20–30 μm thickness were fixed with 2% paraformaldehyde at room temperature for 10 min. The nuclei were stained with 5 μM Hoechst 33342, and the coverslips were mounted using Mowiol and kept at 4°C in the dark until observation using CLSM.

Consider “Cy5-RAFT-c(-RGDfK-)4 (bicyclic or more) [Cy5-labeled tetramer: four c[-RGDfK-] grafted via oxime bond on RAFT cyclic decapeptide, Cy5 on the opposite side lysine]”, for which, in series [1], the “binding to HEK293(β1) cells (CLSM)” value is reported as “none of these peptides bound”. For the same substance, in series [2], the “binding to HEK293(β3) cells (CLSM)” value is recorded as “very strongly”. In the series with HEK293(β3) s.c. tumors [3] (HEK293(β3) s.c. tumor, 10 nmol i.v., 4 hr p.i., mean ± SD, n = 3–4), the “tumor contrast (T/S ratio, tumor vs. skin)” value was found to be 15.9 ± 3.6. In addition, the “renal uptake” value in the series on HEK293(β3) s.c. tumors [3] (i.v. injection, tumor-bearing or normal mice, not modified by excess of unlabeled tetramer or monomer) is listed as “higher renal uptake than Cy5-cRGD”. In addition, the tumor/skin ratio result in the series on HEK293(β3) s.c. tumors [3] (intravenous injection, HEK293(β3) tumors, time not stated (abstract)) was “above 15”. For the same substance, the “distribution / internalization in tumor cells of excised tumors (CLSM, words)” value with HEK293(β3) s.c. tumors [4] is on record as “massively internalized by tumor cells”.
